Tests used:
infesting gramineae = test: herbicidal action on infesting plants (general statements); format: in vivo; conditions: in words
Description: (§1) It is understood that all the data given herein shall have no limiting character on the object of this invention.

useful plants = test: phytotoxic action on useful plants (general statements); format: in vivo, useful gramineae; conditions: in words
Description: as §1

[1] = test system: amaranthus retroflexus L.; test: herbicidal activity, soil treatment one day after sowing; format: in vivo
artemisia vulgaris L. = test: as above; format: in vivo
chenopodium album L. = test: as above; format: in vivo
[2] = test system: echinocloa crus-galli R.S.; test: as above; format: in vivo
setaria glauca L. = test: as above; format: in vivo
vicia sativa L. = test: as above; format: in vivo
Method in brief: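 Pre-emergence soil treatment one day after sowing; activity scored visually on a […] scale against untreated control, from slight difference (1) to no germination or total containment at emergence (4); intermediate activity recorded as both classes, preeminent value first.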

avena sativa (oats) = test: activity on agrarian species, soil treatment one day after sowing; format: in vivo, Avena sativa L.
Description: (§2) The infesting species and the agrarian species have been indicated in Table 1 by letters, as follows:
(§3) Method of evaluation of the results (of tests):
(§4) 0 = no activity and no difference with respect to the control;
(§5) 1 slight differences with respect to the control;
(§6) 3 = considerable activity with damages that definitely impair the further development of most of the small plants; an activity degree already useful for practical purposes;
(§7) 4 = maximum of activity with lack of germination or total containment of the small plants in the emerging stage.
(§8) In the case of an intermediate activity between two classes of the scale, both values are recorded with the one which corresponds to the preeminent activity preceding.
(§9) TABLE 2 reports the activity data of other compounds that fall within the class which is the object of this invention.
(§10) TABLE 3 reports data on the herbicidal activity against infesting herbs, while TABLE 4 reports data concerning the activity on useful species of agricultural cultivations. These tables employ the criterion explained previously. The product was spread on the soil one day after sowing, in quantities of 1, 3, 6, 8, 10, 12 and 14 kg/ha.

[3] = test system: beta vulgaris L. (sugar-beet); test: as above; format: in vivo
Description: as §2
H = beta vulgaris L. (sugar-beet)
as §3, §4, §5, §6, §7, §8, §9, §10

[4] = test system: phaseolus vulgaris (bean); test: as above; format: in vivo, Phaseolus vulgaris L.
Description: as §2
I = phaseolus vulgaris (bean)
as §3, §4, §5, §6, §7, §8, §9, §10

pisum sativum L. (pea) = test: as above; format: in vivo
Description: as §2
L = pisum sativum L. (pea)
as §3, §4, §5, §6, §7, §8, §9
TABLE 3 reports data on the herbicidal activity against infesting herbs, while TABLE 4 reports data concerning the activity on useful species of agricultural cultivations. These tables employ the criterion explained previously. […]

solanum Lycopersicum L. = test: as above; format: in vivo
Description: as §2
M = solanum Lycopersicum L.
as §3, §4, §5, §6, §7
In the case of an intermediate activity between two classes of the scale, both values are recorded with the one which corresponds to the preeminent activity preceding. […]

[5] = test system: triticum vulgare L. (wheat); test: as above; format: in vivo
Description: as §2
N = triticum vulgare L. (wheat)
as §3, §4, §5, §6, §7, §8, §9, §10

zea mais L. (corn) = test: as above; format: in vivo
Description: as §2, §3, §4, §5, §6, §7, §8, §9, §10

oryza sativa L. (rice) = test: as above; format: in vivo
Description: as §2
P = oryza sativa L. (rice)
as §3, §4, §5, §6, §7, §8, §9, §10

SMILES	herbicidal action (infesting gramineae)	phytotoxic action on useful plants (useful plants)	activity on A, 0-4 scale ([1]; 2 kg/ha)	activity on A, 0-4 scale ([1]; 6 kg/ha)	activity on B, 0-4 scale (artemisia vulgaris L.; 2 kg/ha)	activity on B, 0-4 scale (artemisia vulgaris L.; 6 kg/ha)	activity on C, 0-4 scale (chenopodium album L.; 2 kg/ha)	activity on C, 0-4 scale (chenopodium album L.; 6 kg/ha)	activity on D, 0-4 scale ([2]; 2 kg/ha)	activity on D, 0-4 scale ([2]; 6 kg/ha)	activity on E, 0-4 scale (setaria glauca L.; 2 kg/ha)	activity on F, 0-4 scale (vicia sativa L.; 2 kg/ha)	activity on F, 0-4 scale (vicia sativa L.; 6 kg/ha)	activity on N, 0-4 scale ([5]; in vivo)	activity on O, 0-4 scale (zea mais L. (corn); in vivo)	activity on P, 0-4 scale (oryza sativa L. (rice); in vivo)	activity on A, 0-4 scale ([1]; 4 kg/ha)	activity on B, 0-4 scale (artemisia vulgaris L.; 4 kg/ha)	activity on C, 0-4 scale (chenopodium album L.; 4 kg/ha)	activity on E, 0-4 scale (setaria glauca L.; 6 kg/ha)	also measured
CCCN(CCC)C(=O)c1cc(Cl)cc(Cl)c1 [3,5-dichloro-N,N-di-n.propyl-benzamide]	very active	phytotoxic action of considerable intensity	–	–	–	–	–	–	–	–	–	–	–	–	–	–	–	–	–	–	–
CCN(CC)C(=O)c1ccc(Cl)c(Cl)c1 [PA61, 3,4-dichloro-N,N-diethyl-benzamide, reference compound]	–	–	3	3-4	3	3-4	3	3	1	3	2	2-3	3	1	2	3	–	–	–	–	activity on G, 0-4 scale (avena sativa (oats); in vivo): 1; activity on H, 0-4 scale ([3]; in vivo): 3-4; activity on I, 0-4 scale ([4]; in vivo): 1; activity on L, 0-4 scale (pisum sativum L. (pea); in vivo): 1; activity on M, 0-4 scale (solanum Lycopersicum L.; in vivo): 3-4
CCC(C)N(C(=O)c1c(Cl)cccc1Cl)C(C)CC (stereo not drawn) [PA227, 2,6-dichloro-N,N-di-sec.butyl-benzamide]	–	–	1-2	–	0-1	2	1	3-4	2	4	2	0	0	0	0	0	3	1-2	2	4	activity on D, 0-4 scale ([2]; 4 kg/ha): 3; activity on E, 0-4 scale (setaria glauca L.; 4 kg/ha): 3; activity on F, 0-4 scale (vicia sativa L.; 4 kg/ha): 0; activity on G, 0-4 scale (avena sativa (oats); in vivo): 0; activity on H, 0-4 scale ([3]; in vivo): 2; activity on I, 0-4 scale ([4]; in vivo): 0; activity on L, 0-4 scale (pisum sativum L. (pea); in vivo): 0; activity on M, 0-4 scale (solanum Lycopersicum L.; in vivo): 1
CCN(CC)C(=O)c1cc(Cl)cc(Cl)c1 [PA291, 3,5-dichloro-N,N-diethyl-benzamide, reference compound]	very active	phytotoxic action of considerable intensity	2-3	3-4	3	4	2-3	3	1-2	4	2-3	2-3	3-4	4	4	4	3	3-4	3	4	activity on D, 0-4 scale ([2]; 4 kg/ha): 2-3; activity on E, 0-4 scale (setaria glauca L.; 4 kg/ha): 3; activity on F, 0-4 scale (vicia sativa L.; 4 kg/ha): 3
CC(C)N(C(=O)c1cc(Cl)cc(Cl)c1Cl)C(C)C [PA302, 2,3,5-trichloro-N,N-di-iso-propyl-benzamide, reference compound]	very active	phytotoxic action of considerable intensity	–	2-3	–	2	–	3	–	4	–	–	0-1	–	–	4-3	–	–	–	4	activity on A, 0-4 scale ([1]; 3 kg/ha): 2; activity on B, 0-4 scale (artemisia vulgaris L.; 1 kg/ha): 1-2; activity on B, 0-4 scale (artemisia vulgaris L.; 3 kg/ha): 2; activity on C, 0-4 scale (chenopodium album L.; 1 kg/ha): 2; activity on C, 0-4 scale (chenopodium album L.; 3 kg/ha): 3; activity on D, 0-4 scale ([2]; 3 kg/ha): 4; activity on E, 0-4 scale (setaria glauca L.; 1 kg/ha): 3-4; activity on E, 0-4 scale (setaria glauca L.; 3 kg/ha): 4; activity on F, 0-4 scale (vicia sativa L.; 1 kg/ha): 0; activity on F, 0-4 scale (vicia sativa L.; 3 kg/ha): 0-1
CCC(C)N(C(=O)c1ccc(Cl)c(Br)c1)C(C)CC (stereo not drawn) [PA489, 3-bromo,4-chloro-N,N-di-sec.butyl-benzamide]	–	–	1	3	0-1	3	1	2	3-2	3-4	3	0	0-1	–	–	–	1-2	1	1-2	4	activity on D, 0-4 scale ([2]; 4 kg/ha): 3-4; activity on E, 0-4 scale (setaria glauca L.; 4 kg/ha): 4-3; activity on F, 0-4 scale (vicia sativa L.; 4 kg/ha): 0; activity on G, 0-4 scale (avena sativa (oats); 3 kg/ha): 0; activity on G, 0-4 scale (avena sativa (oats); 6 kg/ha): 0; activity on H, 0-4 scale ([3]; 6 kg/ha): 1; activity on I, 0-4 scale ([4]; 3 kg/ha): 0; activity on I, 0-4 scale ([4]; 6 kg/ha): 0; activity on L, 0-4 scale (pisum sativum L. (pea); 3 kg/ha): 0; activity on L, 0-4 scale (pisum sativum L. (pea); 6 kg/ha): 0; activity on M, 0-4 scale (solanum Lycopersicum L.; 6 kg/ha): 1; activity on N, 0-4 scale ([5]; 3 kg/ha): 0; activity on N, 0-4 scale ([5]; 6 kg/ha): 0; activity on O, 0-4 scale (zea mais L. (corn); 3 kg/ha): 0; activity on O, 0-4 scale (zea mais L. (corn); 6 kg/ha): 0; activity on P, 0-4 scale (oryza sativa L. (rice); 3 kg/ha): 0; activity on P, 0-4 scale (oryza sativa L. (rice); 6 kg/ha): 0

— patent publication US3982931A, “N,N-di-sec.butyl-benzamide herbicides” (priority 1967, dated 1976)
